Assay results reported in patent publication US11252963B2, “Pesticidally active pyrazole derivatives” (SYNGENTA PARTICIPATIONS AG, priority 2017, dated 2022).
Read-outs that look alike come from different tables or passages of the source.

Tests used:
Assay type in all cases: in vivo
[1] = system: Myzus persicae (Green Peach Aphid); assay: Myzus persicae (Green Peach Aphid): feeding/contact activity; conditions: foliar, 144 h
Experimental: Myzus persicae (Green Peach Aphid): Feeding/Contact Activity
Sunflower leaf discs were placed onto agar in a 24-well microtiter plate and sprayed with aqueous test solutions prepared from 10,000 ppm DMSO stock solutions. After drying, the leaf discs were infested with an aphid population of mixed ages. The samples were assessed for mortality 6 days after infestation.

[2] = system: Diabrotica balteata (Corn root worm); assay: Diabrotica balteata (Corn root worm) mortality test on sprayed maize sprouts; conditions: 96 h
Experimental: Diabrotica balteata (Corn root worm):
Maize sprouts placed onto an agar layer in 24-well microtiter plates were treated with aqueous test solutions prepared from 10′000 ppm DMSO stock solutions by spraying. After drying, the plates were infested with L2 larvae (6 to 10 per well). The samples were assessed for mortality 4 days after infestation.

[3] = system: Tetranychus urticae (Two-Spotted Spider Mite); assay: Tetranychus urticae (Two-Spotted Spider Mite): feeding/contact activity; conditions: foliar, 192 h, read-out: mortality on mixed population (mobile stages)
Experimental: Tetranychus urticae (Two-Spotted Spider Mite): Feeding/Contact Activity
Bean leaf discs on agar in 24-well microtiter plates were sprayed with aqueous test solutions prepared from 10′000 ppm DMSO stock solutions. After drying the leaf discs were infested with a mite population of mixed ages. The samples were assessed for mortality on mixed population (mobile stages) 8 days after infestation.

[4] = system: Plutella xylostella (Diamond Back Moth); assay: Plutella xylostella (Diamond Back Moth): feeding/contact activity; conditions: 120 h
Experimental: Plutella xylostella (Diamond Back Moth): Feeding/Contact Activity
24-well microtiter plates with artificial diet were treated with aqueous test solutions prepared from 10′000 ppm DMSO stock solutions by pipetting. After drying, the plates were infested with L2 larvae (10 to 15 per well). The samples were assessed for mortality 5 days after infestation.

[5] = system: Euschistus heros (Neotropical Brown Stink Bug); assay: Euschistus heros (Neotropical Brown Stink Bug): feeding/contact activity; conditions: 120 h
Experimental: Euschistus heros (Neotropical Brown Stink Bug): Feeding/Contact Activity
Soybean leaves on agar in 24-well microtiter plates were sprayed with aqueous test solutions prepared from 10,000 ppm DMSO stock solutions. After drying the leaves were infested with N2 nymphs. The samples were assessed for mortality 5 days after infestation.

[6] = system: Thrips tabaci (Onion Thrips); assay: Thrips tabaci (Onion Thrips): feeding/contact activity; conditions: foliar, 144 h
Experimental: Thrips tabaci (Onion Thrips): Feeding/Contact Activity
Sunflower leaf discs were placed on agar in 24-well microtiter plates and sprayed with aqueous test solutions prepared from 10′000 ppm DMSO stock solutions. After drying the leaf discs were infested with a thrips population of mixed ages. The samples were assessed for mortality 6 days after infestation.

[7] = system: Spodoptera littoralis (Egyptian Cotton Leaf Worm); assay: Spodoptera littoralis (Egyptian Cotton Leaf Worm): feeding/contact activity; conditions: foliar, 72 h
Experimental: Spodoptera littoralis (Egyptian Cotton Leaf Worm): Feeding/Contact Activity
Cotton leaf discs were placed onto agar in 24-well microtiter plates and sprayed with aqueous test solutions prepared from 10′000 ppm DMSO stock solutions. After drying the leaf discs were infested with five L1 larvae. The samples were assessed for mortality 3 days after infestation.

[8] = application rate 200 ppm, sunflower leaf discs sprayed, aphid population of mixed ages, assessed 6 days after infestation, read-out: mortality
[9] = application rate 200 ppm, maize sprouts sprayed, L2 larvae, assessed 4 days after infestation, read-out: mortality
[10] = application rate 200 ppm, bean leaf discs sprayed, mite population of mixed ages, assessed 8 days after infestation
[11] = application rate 200 ppm, artificial diet treated by pipetting, L2 larvae, assessed 5 days after infestation, read-out: mortality
[12] = application rate 200 ppm, soybean leaves sprayed, N2 nymphs, assessed 5 days after infestation, read-out: mortality
[13] = application rate 200 ppm, sunflower leaf discs sprayed, thrips population of mixed ages, assessed 6 days after infestation, read-out: mortality
[14] = application rate 200 ppm, cotton leaf discs sprayed, L1 larvae, assessed 3 days after infestation, read-out: mortality

Measured: mortality at 200 ppm

Cn1nc(C(F)(F)C(F)(F)F)c(OC(F)F)c1-n1cc(-c2ccc(Cl)c(C(=O)N(CC#N)C3(C#N)CC3)c2)cn1 [Compound 3, 2-chloro-N-(1-cyanocyclopropyl)-N-(cyanomethyl)-5-[1-[4-(difluoromethoxy)-2-methyl-5-(1,1,2,2,2-pentafluoroethyl)pyrazol-3-yl]pyrazol-4-yl]benzamide]
≥ 80%: [1]; [8] | [2]; [9] | [3]; [10] | [4]; [11] | [5]; [12] | [6]; [13] | [7]; [14]

COCN(C(=O)c1cc(-c2cnn(-c3c(OC(F)F)c(C(F)(F)C(F)(F)F)nn3C)c2)cnc1Cl)C1(C#N)CC1 [Compound 18, 2-chloro-N-(1-cyanocyclopropyl)-5-[1-[4-(difluoromethoxy)-2-methyl-5-(1,1,2,2,2-pentafluoroethyl)pyrazol-3-yl]pyrazol-4-yl]-N-(methoxymethyl)pyridine-3-carboxamide]
≥ 80%: [1]; [8] | [2]; [9] | [3]; [10] | [4]; [11] | [5]; [12] | [6]; [13] | [7]; [14]

Cn1nc(C(F)(F)C(F)(F)F)c(OC(F)F)c1-n1cc(-c2cnc(Cl)c(C(=O)N(C(=O)C3CC3)C3(C#N)CC3)c2)cn1 [Compound 19, 2-chloro-N-(1-cyanocyclopropyl)-N-(cyclopropanecarbonyl)-5-[1-[4-(difluoromethoxy)-2-methyl-5-(1,1,2,2,2-pentafluoroethyl)pyrazol-3-yl]pyrazol-4-yl]pyridine-3-carboxamide]
≥ 80%: [1]; [8] | [2]; [9] | [3]; [10] | [4]; [11] | [5]; [12] | [6]; [13] | [7]; [14]

CC(C)OC(=O)N(C(=O)c1cc(-c2cnn(-c3c(OC(F)F)c(C(F)(F)C(F)(F)F)nn3C)c2)ccc1Cl)C1(C#N)CC1 [Compound 5, isopropyl N-[2-chloro-5-[1-[4-(difluoromethoxy)-2-methyl-5-(1,1,2,2,2-pentafluoroethyl)pyrazol-3-yl]pyrazol-4-yl]benzoyl]-N-(1-cyanocyclopropyl)carbamate]
≥ 80%: [1] | [2] | [3] | [4] | [5]; in Glycine max | [6] | [7]

Cn1nc(C(F)(F)C(F)(F)F)c(OC(F)F)c1-n1cc(-c2cnc(Cl)c(C(=O)N(CC#N)C3(C#N)CC3)c2)cn1 [Compound 15, 2-chloro-N-(1-cyanocyclopropyl)-N-(cyanomethyl)-5-[1-[4-(difluoromethoxy)-2-methyl-5-(1,1,2,2,2-pentafluoroethyl)pyrazol-3-yl]pyrazol-4-yl]pyridine-3-carboxamide]
≥ 80%: [1]; [8] | [2]; [9] | [3]; [10] | [4]; [11] | [5]; [12] | [6]; [13] | [7]; [14]

CCC(=O)N(C(=O)c1cc(-c2cnn(-c3c(OC(F)F)c(C(F)(F)C(F)(F)F)nn3C)c2)cnc1Cl)C1(C#N)CC1 [Compound 20, 2-chloro-N-(1-cyanocyclopropyl)-5-[1-[4-(difluoromethoxy)-2-methyl-5-(1,1,2,2,2-pentafluoroethyl)pyrazol-3-yl]pyrazol-4-yl]-N-propanoyl-pyridine-3-carboxamide]
≥ 80%: [1]; [8] | [2]; [9] | [3]; [10] | [4]; [11] | [5]; [12] | [6]; [13] | [7]; [14]

COC(=O)N(C(=O)c1cc(-c2cnn(-c3c(OC(F)F)c(C(F)(F)C(F)(F)F)nn3C)c2)cnc1Cl)C1(C#N)CC1 [Compound 17, methyl N-[2-chloro-5-[1-[4-(difluoromethoxy)-2-methyl-5-(1,1,2,2,2-pentafluoroethyl)pyrazol-3-yl]pyrazol-4-yl]pyridine-3-carbonyl]-N-(1-cyanocyclopropyl)carbamate]
≥ 80%: [1] | [2] | [3] | [4] | [5]; in Glycine max | [6] | [7]
